Read-outs that look alike come from different tables or passages of the source.
Key:
[1] = system: cells incubated with EGF or serum; experiment: Inhibition of cell proliferation as measured by inhibition of DNA synthesis ([3H]thymidine incorporation); assay type: cell-based
Procedure: Cells were seeded at 1×10^5 cells per well in 24-well Costar dishes pre-coated with human fibronectin (by incubating for 30 minutes at room temperature with 10 μg/0.5 ml/well). The cells were grown to confluence for 2 days. The medium was changed to DMEM containing 0.5 calf serum for 36-48 hours and the cells were then incubated with EGF (Toyobo, New York, N.Y.) (20 ng/ml) or serum (10% calf serum) and different concentrations of the inhibitory compounds. […] TCA precipitable material was quantitated by scintillation counting (C). […]
Cells termed HER 14 and K721A (=DK) were prepared by transfecting NIH3T3 cells (clone 2.2) (From C. Fryling, NCI, NIH), which lack endogenous EGF-receptors, with cDNA constructs of wild-type EGF-receptor or mutant EGF-receptor lacking tyrosine kinase activity (in which Lys 721 at the ATP-binding site was replaced by an Ala residue, respectively). All cells were grown in DMEM with 10% calf serum (Hyclone, Logan, Utah).

EGF receptor [2] = molecular target: T1, EGF receptor (Homo sapiens, UniProt P00533); experiment: EGF-receptor kinase (PTK) activity inhibition on extracted EGF receptors, poly(GAT) substrate, Dixon analysis; assay type: biochemical; parameters: EGF receptors were prepared from A431 cells (obtained from the ATCC) and PTK activity of these receptors was assayed; endogenous in cells; host or cells: A431 cells (ATCC); conditions: EGF receptors from A431 cells; copoly Glu6Ala3Tyr1 substrate; analysis according to Dixon; read-out: Klnh, dissociation constant of the PTK-inhibitor complex
T1 sequence (P00533 25-1210): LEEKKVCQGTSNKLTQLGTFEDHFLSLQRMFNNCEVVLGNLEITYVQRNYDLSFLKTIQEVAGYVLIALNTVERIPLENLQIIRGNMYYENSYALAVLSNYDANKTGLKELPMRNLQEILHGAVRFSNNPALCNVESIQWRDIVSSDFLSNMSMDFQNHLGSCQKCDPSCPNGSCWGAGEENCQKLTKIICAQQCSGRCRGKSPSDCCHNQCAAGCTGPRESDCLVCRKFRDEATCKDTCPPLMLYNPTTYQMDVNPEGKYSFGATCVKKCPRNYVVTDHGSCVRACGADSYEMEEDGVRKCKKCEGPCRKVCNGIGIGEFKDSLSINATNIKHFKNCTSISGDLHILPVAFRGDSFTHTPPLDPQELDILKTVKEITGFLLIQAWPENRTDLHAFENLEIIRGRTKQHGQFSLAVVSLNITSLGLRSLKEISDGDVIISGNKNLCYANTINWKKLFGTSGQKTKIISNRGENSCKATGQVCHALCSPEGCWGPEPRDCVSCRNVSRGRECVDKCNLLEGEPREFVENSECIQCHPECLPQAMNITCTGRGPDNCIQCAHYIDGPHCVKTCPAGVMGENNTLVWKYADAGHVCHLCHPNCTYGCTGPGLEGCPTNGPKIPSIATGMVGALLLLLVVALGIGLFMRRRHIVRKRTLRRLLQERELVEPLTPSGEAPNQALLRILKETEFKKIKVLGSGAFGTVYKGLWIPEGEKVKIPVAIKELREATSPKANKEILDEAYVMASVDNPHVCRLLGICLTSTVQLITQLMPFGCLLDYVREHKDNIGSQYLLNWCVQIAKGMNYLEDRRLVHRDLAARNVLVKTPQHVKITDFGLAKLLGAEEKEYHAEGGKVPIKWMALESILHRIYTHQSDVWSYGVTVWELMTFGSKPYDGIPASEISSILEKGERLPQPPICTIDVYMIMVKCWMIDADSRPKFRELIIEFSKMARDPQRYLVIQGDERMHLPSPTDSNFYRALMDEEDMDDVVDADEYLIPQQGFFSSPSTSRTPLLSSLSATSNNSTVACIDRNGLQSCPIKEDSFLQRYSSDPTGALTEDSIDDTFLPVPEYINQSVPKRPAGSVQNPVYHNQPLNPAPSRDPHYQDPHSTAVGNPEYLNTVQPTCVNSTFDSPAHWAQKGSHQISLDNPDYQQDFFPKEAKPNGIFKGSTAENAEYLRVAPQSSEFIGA
Procedure: The different KInh values were determined by the analysis according to Dixon.
EGF-receptor purification is based on the procedure of Yarden and Schlessinger. A431 cells are grown in 80 cm^2 bottles in confluency (2×10^7 cells per bottle). The cells are washed twice with PBS and harvested with PBS containing 1.0 mmol EDTA (1 hour at 37° C.), and centrifuged at 600 g for 10 minutes. The cells are solubilized in 1 ml per 2×10^7 cells of cold solubilization buffer (50 mmol Hepes buffer, pH 7.6, 1% Triton X-100, 150 mmol NaCl, 5 mmol EGTA, 1 mmol PMSF, 50 μg/ml aprotinin, 25 mmol benzamidine, 5 μg/ml leupeptin, and 10 μg/ml soybean trypsin inhibitor) for 20 minutes at 4° C. After centrifugation at 100000g for 30 minutes, the supernatant is loaded onto a WGA-agarose column (100 μl of packed resin per 2×10^7 cells) and shaken for 2 hours at 4° C. The unabsorbed material is removed and the resin washed twice with HTN buffer (50 mmol Hepes, pH 7.6, 0.1% Triton X-100, 150 mmol NaCl), twice with HTN buffer containing 1 M NaCl, and twice with HTNG buffer (50 mmol Hepes, pH 7.6, 0.1% Triton X-100, 150 mmol NaCl, and 10% glycerol). The EGF receptor is eluted batchwise with HTNG buffer containing 0.5 M N-acetyl-D-glucosamine (200 μl per […] cells). The eluted material is stored in aliquots at −70° C. and diluted before use with TMTNG buffer (50 mmol Tris-Mes buffer, pH 7.6, 0.1% Triton X-100, 150 mmol NaCl, 10% glycerol).
The concentration of EGF in the assay is 300 nM in a final volume of 40 μl. After 5, 10 or 20 minutes, aliquots of 25 μl are applied onto Whatman 3-mm paper cuttings, which are then soaked in cold 10% TCA containing 0.01 M sodium pyrophosphate. After being washed overnight at 4° C., the paper cuttings are dried and counted, measuring ^32P Cerenkov radiation. […] The EGF response for the poly(GAT) phosphorylation is graphed.

EGF receptor [3] = molecular target: T1, EGF receptor; conditions: membranes of A431 cells; reported; cited from earlier work
[4] = [3H]thymidine incorporation halved, cells stimulated with EGF (20 ng/ml), read-out: IC50 - EGF
[5] = [3H]thymidine incorporation halved, cells stimulated with serum (10% calf serum), read-out: IC50 - FCS

Q: Which results are given for CC(C)(C)c1cc(C=C(C#N)C(N)=S)cc(C(C)(C)C)c1 [Example 26, α-Cyano-β-(3,5-di-tertbutylphenyl)propenethioamide]?
A: IC50 [1, 4]: 20 µM; IC50 [1, 5]: 100 µM

Q: For N#CC(C#N)=C(O)c1cc(O)c(O)c(O)c1 [Example 5, α-Hydroxy-3,4,5-trihydroxybenzylidene malononitrile], which Ki (EGF receptor [2]) is on record?
A: 4.5 µM

Q: For COc1cc(C=C(C#N)C#N)cc(O)c1O [Example 2, 3-methoxy-4,5-dihydroxybenzylidene malononitrile], which Ki (EGF receptor [2]) is on record?
A: 2.2 ± 0.3 µM

Q: For CC(C)(C)c1cc(C=C(C#N)C#N)cc(C(C)(C)C)c1O [Example 3, 3,5-di-tert butyl-4-hydroxybenzylidene malononitrile], which IC50 ([1]; read-out: IC50 - EGF) is on record?
A: 0.1 µM

Q: And the IC50 ([1]; read-out: IC50 - FCS)?
A: 0.2 µM

Q: What does the source list for N#CC(=Cc1ccc(O)c(O)c1)C(=O)Nc1ccccc1 [Example 25, N-Phenyl-α-cyano-3,4-dihydroxycinnamamide]?
A: IC50 [1, 4]: 30 µM; IC50 [1, 5]: 100 µM

Q: With N#CC(C#N)=Cc1ccc(C=O)cc1 [Example 15, 4-Formylbenzylidene malononitrile] as the compound, how does the Ki (EGF receptor [2]) read?
A: 20 µM

Q: For O=CN/C=C/c1cc(O)ccc1O [erbstatin], which “inhibition of EGF receptor autophosphorylation” value (EGF receptor [3]) is on record?
A: inhibits the autophosphorylation of the EGF receptor

Q: Which Ki (EGF receptor [2]) does the source give for N#CC(=Cc1ccc(O)c(O)c1)C(N)=O [Example 6, α-Cyano-3,4-dihydroxycinnamamide] here?
A: 3.5 ± 0.6 µM

Q: Which Ki (EGF receptor [2]) does the source give for N#CC(=Cc1ccc(O)c(O)c1)C(=O)O [Example 10, α-Cyano-3,4-dihydroxycinnamic acid] here?
A: 23.6 µM

— patent USRE38761E1, “Styryl compounds which inhibit EGF receptor protein tyrosine kinase” (Yissum Research Development Company of the Hebrew …, priority 1987, dated 2005)
